Measurements as given in PubChem BioAssay (NCI).
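Compound exposure: 48 hours, 5 concentrations, 96-well plates. GI50 = concentration required for 50% inhibition of growth. At the TGI there is no net growth.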

Legend:
Assay in all cases: growth of human tumour cells (NCI), 48 h; in the data active = GI50 below about 0.43 µM; inactive = the rest
NCI-H226 lung = system: NCI-H226 lung
NCI-H23 lung = system: NCI-H23 lung
NCI-H460 lung = system: NCI-H460 lung
NCI-H522 lung = system: NCI-H522 lung
NCI/ADR-RES ovarian = system: NCI/ADR-RES ovarian
OVCAR-4 ovarian = system: OVCAR-4 ovarian
OVCAR-5 ovarian = system: OVCAR-5 ovarian
OVCAR-8 ovarian = system: OVCAR-8 ovarian
PC-3 prostate = system: PC-3 prostate
RPMI-8226 leukemia = system: RPMI-8226 leukemia
RXF 393 renal = system: RXF 393 renal
SF-268 CNS = system: SF-268 CNS
SF-295 CNS = system: SF-295 CNS
SF-539 CNS = system: SF-539 CNS
SK-MEL-2 melanoma = system: SK-MEL-2 melanoma
SK-MEL-28 melanoma = system: SK-MEL-28 melanoma
SK-MEL-5 melanoma = system: SK-MEL-5 melanoma
SK-OV-3 ovarian = system: SK-OV-3 ovarian
SN12C renal = system: SN12C renal
SNB-19 CNS = system: SNB-19 CNS
SNB-75 CNS = system: SNB-75 CNS
SR leukemia = system: SR leukemia
SW-620 colon = system: SW-620 colon
T-47D breast = system: T-47D breast
TK-10 renal = system: TK-10 renal
U251 CNS = system: U251 CNS
UACC-257 melanoma = system: UACC-257 melanoma
UACC-62 melanoma = system: UACC-62 melanoma
UO-31 renal = system: UO-31 renal

Oc1ccc(CSc2nnc(-c3ccc(Cl)cc3)n2-c2ccccc2)c2cccnc12
> 72100 nM: TGI (SK-MEL-2 melanoma)
> 100000 nM: TGI (NCI-H226 lung) | TGI (NCI-H23 lung) | TGI (NCI-H460 lung) | TGI (NCI-H522 lung) | TGI (NCI/ADR-RES ovarian) | TGI (OVCAR-4 ovarian) | TGI (OVCAR-5 ovarian) | TGI (OVCAR-8 ovarian) | TGI (PC-3 prostate) | TGI (RPMI-8226 leukemia) | TGI (RXF 393 renal) | TGI (SF-268 CNS) | TGI (SF-295 CNS) | TGI (SF-539 CNS) | TGI (SK-MEL-28 melanoma) | TGI (SK-MEL-5 melanoma) | TGI (SK-OV-3 ovarian) | TGI (SN12C renal) | TGI (SNB-19 CNS) | TGI (SNB-75 CNS) | TGI (SR leukemia) | TGI (SW-620 colon) | TGI (T-47D breast) | TGI (TK-10 renal) | TGI (UACC-257 melanoma) | TGI (UACC-62 melanoma) | TGI (UO-31 renal)
inactive: GI50 (NCI-H23 lung) 697 nM | GI50 (NCI-H522 lung) 1910 nM | GI50 (OVCAR-4 ovarian) 2070 nM | GI50 (OVCAR-5 ovarian) 5730 nM | GI50 (OVCAR-8 ovarian) 516 nM | GI50 (PC-3 prostate) 636 nM | GI50 (RPMI-8226 leukemia) 456 nM | GI50 (RXF 393 renal) 1790 nM | GI50 (SF-268 CNS) 633 nM | GI50 (SF-295 CNS) 732 nM | GI50 (SF-539 CNS) 444 nM | GI50 (SK-MEL-2 melanoma) 1340 nM | GI50 (SK-MEL-28 melanoma) 1150 nM | GI50 (SK-MEL-5 melanoma) 2220 nM | GI50 (SK-OV-3 ovarian) 2340 nM | GI50 (SN12C renal) 908 nM | GI50 (SNB-19 CNS) 434 nM | GI50 (SNB-75 CNS) 802 nM | GI50 (SW-620 colon) 436 nM | GI50 (T-47D breast) 1920 nM | GI50 (TK-10 renal) 756 nM | GI50 (UACC-257 melanoma) 2980 nM | GI50 (UACC-62 melanoma) 1490 nM
active: GI50 (NCI-H460 lung) 368 nM | GI50 (NCI/ADR-RES ovarian) 211 nM | GI50 (SR leukemia) 264 nM | GI50 (U251 CNS) 327 nM | GI50 (UO-31 renal) 273 nM
> 22100 nM: TGI (U251 CNS)
